Assay results taken from article PMC5911580, “YL143, a novel mutant selective irreversible EGFR inhibitor, overcomes EGFR^L858R, T790M‐mutant resistance in vitro and in vivo” (Cancer Medicine, 2018).
Like-named read-outs stand apart in the source and are kept apart here.

Legend:
[1] = biological target: IR (Homo sapiens, UniProt P06213); assay: FRET-based Z'-Lyte kinase assay, IR; type: biochemical; conditions: AV ± SD; 1.5 h incubation
Procedure: (§1) The kinase activity assay was performed and optimized according to the instructions of Z’‐LYTE™ kinase assay kits from the manufacturer (PV4879, Life, America). In our experiments, 10 concentration gradients from 0.01 nmol/L to 1.0 μmol/L were used for all the compounds.

[2] = system: H1975 (EGFR^L858R/T790M) cells; assay: CCK-8 cell growth assay, H1975; type: cell-based; conditions: Homo sapiens, read-out: antiproliferative IC50 H1975
Procedure: (§2) Cells were seeded into 96‐well plates at a density of 1500~3000/well in complete medium overnight. Then, cells were treated with various concentrations (0.01~1000 nmol/L) of YL143 for additional 3 days. Viable cell numbers were determined by Cell Counting Kit 8 (CCK8, CK04, Dojindo Laboratories, Japan). Each assay consisted of three replicate wells and repeated at least three times. […] Each IC50 value was expressed as mean ± SD.

[3] = system: BaF3; assay: CCK-8 assay, BaF3 cells; type: cell-based; conditions: Mus musculus, AV±SD, read-out: anti-proliferative activity BaF3
Procedure: as §2
(§3) The anti-proliferative activities of the compounds were evaluated using CCK-8 assay. The data were means from at least four independent experiments.

[4] = system: HCC827 (EGFR^del 19) cells; assay: CCK-8 cell growth assay, HCC827; type: cell-based; conditions: Homo sapiens, read-out: antiproliferative IC50 HCC827
Procedure: as §2

[5] = biological target: IGF1R (Homo sapiens, UniProt P08069); assay: FRET-based Z'-Lyte kinase assay, IGF1R; type: biochemical; conditions: AV ± SD; 1.5 h incubation
IGF1R, sequence (P08069 31-1367, species assumed): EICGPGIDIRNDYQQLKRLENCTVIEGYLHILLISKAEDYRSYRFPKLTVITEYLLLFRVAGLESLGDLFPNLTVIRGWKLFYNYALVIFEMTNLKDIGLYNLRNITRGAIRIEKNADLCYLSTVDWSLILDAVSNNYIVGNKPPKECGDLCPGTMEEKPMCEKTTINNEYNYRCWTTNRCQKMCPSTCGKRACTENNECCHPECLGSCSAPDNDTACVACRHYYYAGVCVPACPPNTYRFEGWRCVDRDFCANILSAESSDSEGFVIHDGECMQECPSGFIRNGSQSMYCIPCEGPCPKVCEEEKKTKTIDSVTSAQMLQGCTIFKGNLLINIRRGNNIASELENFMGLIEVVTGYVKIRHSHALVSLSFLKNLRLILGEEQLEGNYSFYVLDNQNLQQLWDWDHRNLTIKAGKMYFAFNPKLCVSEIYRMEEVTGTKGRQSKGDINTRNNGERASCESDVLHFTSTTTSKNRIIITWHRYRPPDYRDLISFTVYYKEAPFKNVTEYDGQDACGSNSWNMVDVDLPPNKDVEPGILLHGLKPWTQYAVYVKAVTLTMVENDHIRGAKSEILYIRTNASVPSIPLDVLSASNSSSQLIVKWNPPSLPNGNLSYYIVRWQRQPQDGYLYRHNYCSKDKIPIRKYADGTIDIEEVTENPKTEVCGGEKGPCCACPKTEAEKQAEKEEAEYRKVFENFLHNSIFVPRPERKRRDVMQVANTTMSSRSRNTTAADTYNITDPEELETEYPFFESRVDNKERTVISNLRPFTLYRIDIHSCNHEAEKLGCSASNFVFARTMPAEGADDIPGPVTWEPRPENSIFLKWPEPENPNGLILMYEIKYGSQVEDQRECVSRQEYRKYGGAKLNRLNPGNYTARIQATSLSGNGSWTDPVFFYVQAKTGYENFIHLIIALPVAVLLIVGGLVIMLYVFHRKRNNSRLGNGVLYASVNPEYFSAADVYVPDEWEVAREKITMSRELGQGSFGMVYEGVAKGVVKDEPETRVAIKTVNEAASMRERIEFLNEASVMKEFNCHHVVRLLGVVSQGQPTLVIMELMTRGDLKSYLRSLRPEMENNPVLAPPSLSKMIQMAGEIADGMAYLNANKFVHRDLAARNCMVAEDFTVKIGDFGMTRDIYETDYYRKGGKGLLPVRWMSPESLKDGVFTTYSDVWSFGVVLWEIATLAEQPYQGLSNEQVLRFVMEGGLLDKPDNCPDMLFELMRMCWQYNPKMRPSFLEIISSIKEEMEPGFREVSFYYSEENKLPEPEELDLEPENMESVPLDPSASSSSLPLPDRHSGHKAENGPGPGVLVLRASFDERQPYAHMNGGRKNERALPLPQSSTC
Procedure: as §1

[6] = system: A431 (EGFR^WT) cells; assay: CCK-8 cell growth assay, A431; type: cell-based; conditions: Homo sapiens, read-out: antiproliferative IC50 A431
Procedure: as §2

[7] = system: A549 (EGFR^WT) cells; assay: CCK-8 cell growth assay, A549; type: cell-based; conditions: Homo sapiens, read-out: antiproliferative IC50 A549
Procedure: as §2

[8] = cited from earlier work; for median progression-free survival (PFS): patients with NSCLC with EGFR^L858R or EGFR^del19, improved from 4.6
[9] = system: BaF3-EGFR ^L858R; assay: CCK-8 assay, BaF3-EGFR L858R stable cells; type: cell-based; conditions: Ba/F3 EGFR-L858R, read-out: anti-proliferative activity BaF3-EGFR L858R
Procedure: as §2, §3

[10] = cited from earlier work

IR, sequence (P06213 28-1382): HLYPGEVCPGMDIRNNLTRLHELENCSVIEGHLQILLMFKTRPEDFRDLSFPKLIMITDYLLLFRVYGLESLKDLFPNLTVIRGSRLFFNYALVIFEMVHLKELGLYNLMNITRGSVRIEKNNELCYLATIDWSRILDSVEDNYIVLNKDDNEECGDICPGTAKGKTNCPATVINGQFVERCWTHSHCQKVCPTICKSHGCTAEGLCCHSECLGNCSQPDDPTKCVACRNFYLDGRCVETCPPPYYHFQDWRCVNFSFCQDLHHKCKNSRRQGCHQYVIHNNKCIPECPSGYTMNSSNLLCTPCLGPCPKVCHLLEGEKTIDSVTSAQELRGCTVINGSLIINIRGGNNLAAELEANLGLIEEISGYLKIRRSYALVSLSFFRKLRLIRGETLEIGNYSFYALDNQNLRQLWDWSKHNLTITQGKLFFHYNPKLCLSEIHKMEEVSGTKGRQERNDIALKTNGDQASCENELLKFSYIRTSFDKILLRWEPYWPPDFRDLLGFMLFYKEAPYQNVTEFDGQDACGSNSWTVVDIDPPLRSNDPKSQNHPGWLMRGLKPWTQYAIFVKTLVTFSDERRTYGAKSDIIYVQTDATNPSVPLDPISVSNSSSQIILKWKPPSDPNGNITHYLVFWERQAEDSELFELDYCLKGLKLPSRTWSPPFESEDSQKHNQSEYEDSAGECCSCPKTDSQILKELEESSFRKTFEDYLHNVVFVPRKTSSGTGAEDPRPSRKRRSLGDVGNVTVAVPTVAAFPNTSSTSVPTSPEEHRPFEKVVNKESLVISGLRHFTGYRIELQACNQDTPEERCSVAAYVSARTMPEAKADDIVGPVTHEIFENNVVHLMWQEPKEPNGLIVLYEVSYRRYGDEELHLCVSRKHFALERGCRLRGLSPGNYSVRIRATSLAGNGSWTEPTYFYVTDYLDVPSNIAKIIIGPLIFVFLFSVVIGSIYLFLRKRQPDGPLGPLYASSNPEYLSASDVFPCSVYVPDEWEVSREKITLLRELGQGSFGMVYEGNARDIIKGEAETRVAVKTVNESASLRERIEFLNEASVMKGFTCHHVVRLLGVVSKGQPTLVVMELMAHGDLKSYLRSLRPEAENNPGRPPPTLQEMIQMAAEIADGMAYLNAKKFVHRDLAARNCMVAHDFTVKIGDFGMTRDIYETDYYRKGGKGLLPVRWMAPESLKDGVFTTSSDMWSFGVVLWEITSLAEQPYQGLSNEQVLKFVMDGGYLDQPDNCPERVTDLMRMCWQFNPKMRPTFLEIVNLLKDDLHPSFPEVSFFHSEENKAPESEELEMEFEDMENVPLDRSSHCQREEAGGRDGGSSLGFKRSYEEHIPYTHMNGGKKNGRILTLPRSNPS

C=CC(=O)Nc1cc(Nc2nccc(-c3cn(C)c4ccccc34)n2)c(OC)cc1N(C)CCN(C)C [AZD9291, Osimertinib]
IC50 [1]: 235 nM
IC50 ([2]; NCI-H1975, 72 h): 40.3 ± 16.6 nM
IC50 [3]: 6170 ± 2980 nM
IC50 ([4]; HCC827, 72 h): 3.9 ± 3.5 nM
IC50 [5]: 277 nM
IC50 ([7]; A549, 72 h): > 1000 nM
PFS (progression-free survival) ([8]; improved from 10.2): 18.9 months
IC50 [9]: 24 ± 25 nM

C=CC(=O)Nc1cccc(Nc2nc(Nc3ccc(N4CCN(C(C)=O)CC4)cc3OC)ncc2C(F)(F)F)c1 [CO1686, Rociletinib]
IC50 [1]: 12.8 ± 0.8 nM
IC50 ([2]; NCI-H1975, CCK-8, 72 h, AV ± SD): 41.8 ± 25.1 nM
IC50 [3]: 2340 ± 1660 nM
IC50 ([4]; HCC827, CCK-8, 72 h, AV ± SD): 67.2 ± 19.5 nM
IC50 [5]: 47.5 ± 8.4 nM
hyperglycemia ([10]; clinical investigation): about 40 % patients
hyperglycemia ([10]; patients, clinical study): 47%
IC50 ([6]; A-431, CCK-8, 72 h): > 1000 nM
IC50 ([7]; A549, CCK-8, 72 h): > 1000 nM
IC50 ([9]; CCK-8, AV±SD): 69 ± 48 nM

COc1cc2ncnc(Nc3ccc(F)c(Cl)c3)c2cc1OCCCN1CCOCC1 [Gefitinib]
median progression-free survival (PFS) [8]: 13.1 months

C#Cc1cccc(Nc2ncnc3cc(OCCOC)c(OCCOC)cc23)c1 [erlotinib]
median progression-free survival (PFS) [8]: 13.1 months
